In brackets after ≈: the same amount, converted by molar mass. Like-named read-outs stand apart in the source and are kept apart here.
Experiments:
[1] = system: S. aureus ATCC 29213; test: MIC, microdilution in CAMHB 24 h, with or without tomatidine/compound; format: cell-based, Staphylococcus aureus; conditions: for MIC: Staphylococcus aureus
[2] = system: S. aureus ATCC 29213; test: Checkerboard assay, aminoglycoside and tomatidine; format: cell-based, Staphylococcus aureus; conditions: for MIC: Staphylococcus aureus, ATCC29213, checkerboard
Method: This checkerboard protocol (Eliopoulos and Moellering, 1996) was conducted by a microdilution method similar to that use for standard MICs determination. In 96 wells plates, antibiotics were loaded at a 4× concentration (where X is the maximal tested concentration) in well A1 and at a 2× concentration in the others wells of the column 1. Antibiotics were serially diluted 1:1 from the column 2 to column 10. […] Wells A12, B12, […] are positive untreated controls whereas wells […] are negative non-inoculated controls. […] The FIC index was calculated as follow (Eliopoulos and Moellering, 1996): FIC […]/MICB, where A and B are MICs of compounds A and B in combination and where MICA and MICB are the MICs of compound A alone and of compound B alone, respectively, and FICA and FICB are the FICs of compound A and of compound B, respectively.

[3] = system: S. aureus Newbould; test: MIC, microdilution in CAMHB 24 h; format: cell-based, Staphylococcus aureus; conditions: Newbould; for MIC: Staphylococcus aureus
[4] = system: S. aureus SHY97-3906; test: MIC, microdilution in CAMHB 24 h; format: cell-based, Staphylococcus aureus; conditions: for MIC: Staphylococcus aureus, SHY973906
[5] = system: S. aureus ATCC 43300; test: MIC, microdilution in CAMHB 24 h; format: cell-based, Staphylococcus aureus; conditions: ATCC 43300; for MIC: Staphylococcus aureus
[6] = system: S. aureus ATCC BAA-41; test: MIC, microdilution in CAMHB 24 h; format: cell-based, Staphylococcus aureus; conditions: for MIC: Staphylococcus aureus
[7] = system: S. aureus N315; test: microbe, parasite or virus in culture; format: cell-based, Staphylococcus aureus; conditions: for MIC: Staphylococcus aureus
[8] = system: S. aureus MRSA COL; test: MIC, microdilution in CAMHB 24 h; format: cell-based, Staphylococcus aureus; conditions: MRSA COL; for MIC: Staphylococcus aureus
[9] = system: S. aureus Sa220c; test: MIC, microdilution in CAMHB 24 h; format: cell-based, Staphylococcus aureus; conditions: Sa220c; for MIC: Staphylococcus aureus
[10] = system: S. aureus Sa228c; test: MIC, microdilution in CAMHB 24 h; format: cell-based, Staphylococcus aureus; conditions: for MIC: Staphylococcus aureus, SA228C
[11] = system: S. aureus CF1A-L; test: MIC, microdilution in CAMHB 24 h; format: cell-based, Staphylococcus aureus; conditions: CF1A-L; for MIC: Staphylococcus aureus, CF1AL
[12] = system: S. aureus CF2A-L; test: MIC, microdilution in CAMHB 24 h; format: cell-based; conditions: CF2A-L; for MIC: Staphylococcus aureus, CF2AL
[13] = system: S. aureus CF4B-L; test: MIC, microdilution in CAMHB 24 h; format: cell-based, Staphylococcus aureus; conditions: CF4B-L; for MIC: Staphylococcus aureus, CF4BL
[14] = system: S. aureus CF6B-L; test: MIC, microdilution in CAMHB 24 h; format: cell-based, Staphylococcus aureus; conditions: CF6B-L; for MIC: Staphylococcus aureus, CF6BL
[15] = system: S. aureus CF8E-L; test: MIC, microdilution in CAMHB 24 h; format: cell-based, Staphylococcus aureus; conditions: CF8E-L; for MIC: Staphylococcus aureus, CF8EL
[16] = system: S. aureus CF9A-L; test: MIC, microdilution in CAMHB 24 h; format: cell-based, Staphylococcus aureus; conditions: CF9A-L; for MIC: Staphylococcus aureus
[17] = system: S. aureus CF35A-L; test: MIC, microdilution in CAMHB 24 h; format: cell-based, Staphylococcus aureus; conditions: CF35A-L; for MIC: Staphylococcus aureus
[18] = system: S. aureus CF07-L; test: MIC, microdilution in CAMHB 24 h; format: cell-based, Staphylococcus aureus; conditions: CF07-L; for MIC: Staphylococcus aureus, CF07L
[19] = system: S. aureus ATCC 29213; test: Time-kill experiments, aminoglycoside alone or with tomatidine (FIGS. 8-10); conditions: alone at ≧1×MIC (1 μg/ml); regrowth observed within 24 h; FIG. 9
[20] = 8 μg/ml of tomatidine, read-out: MIC +TO
[21] = absence of tomatidine, read-out: MIC −TO
[22] = Human (CF lungs), read-out: MIC
[23] = Human (CF lungs), MRSA, read-out: MIC

NC[C@H]1O[C@H](O[C@H]2[C@H](O)[C@@H](O[C@H]3O[C@H](CO)[C@@H](O)[C@H](N)[C@H]3O)[C@H](N)C[C@@H]2N)[C@H](N)C[C@@H]1O [Tobramycin, tobramycin]
Fold (−TO/+TO) ([1]; ATCC 29123, 8 μg/ml of tomatidine): 4-16 fold
Fold (−TO/+TO) ([1]; ATCC 29213, tomatidine at 8 μg/ml): 4-8 fold
MIC ([1]; ATCC 29123 / ATCC 29213, ATCC 29123, 8 μg/ml of tomatidine, read-out: MIC +TO): 0.03 to 0.06 µg/mL (≈ 0.0642 to 0.128 µM)
MIC ([1]; ATCC 29123 / ATCC 29213, ATCC 29123, absence of tomatidine, read-out: MIC −TO): 0.25 to 0.5 µg/mL (≈ 0.535 to 1.07 µM)
MIC ([1]; ATCC29213, ATCC 29213, Human (SSTI), read-out: MIC): 0.25 to 0.5 µg/mL (≈ 0.535 to 1.07 µM)
MIC ([1]; ATCC29213, ATCC 29213, absence of tomatidine, read-out: MIC −TO): 0.25 to 0.5 µg/mL (≈ 0.535 to 1.07 µM)
MIC ([1]; ATCC29213, ATCC 29213, presence of tomatidine at 8 μg/ml, read-out: MIC +TO): 0.06 µg/mL
MIC ([2]; tomatidine 0 μg/ml): 0.25 to 0.5 µg/mL
MIC ([2]; tomatidine 0.06 μg/ml): 0.25 µg/mL
MIC ([2]; tomatidine 0.12 μg/ml): 0.03 to 0.12 µg/mL
MIC ([2]; tomatidine 0.25 μg/ml): 0.03 to 0.06 µg/mL
MIC ([2]; tomatidine 0.5 μg/ml): 0.03 µg/mL
MIC ([2]; tomatidine 1 μg/ml): 0.03 to 0.06 µg/mL
MIC ([2]; tomatidine 2 μg/ml): 0.03 to 0.06 µg/mL
MIC ([2]; tomatidine 4 μg/ml): 0.03 to 0.06 µg/mL
MIC ([2]; tomatidine 8 μg/ml): 0.06 µg/mL
FIC index ([2]; aminoglycoside with tomatidine, tomatidine MIC considered 32 μg/ml, values overestimated): ≦0.133
Fold (−TO/+TO) ([3]; 8 μg/ml of tomatidine): 8 fold
MIC [3, 20]: 0.06 to 0.12 µg/mL (≈ 0.128 to 0.257 µM)
MIC ([3]; Cow (mastitis), read-out: MIC): 0.5 to 1 µg/mL (≈ 1.07 to 2.14 µM)
MIC [3, 21]: 0.5 to 1 µg/mL (≈ 1.07 to 2.14 µM)
Fold (−TO/+TO) ([4]; SHY-3906, 8 μg/ml of tomatidine): 8 fold
MIC ([4]; SHY97-3906, Cow (mastitis), read-out: MIC): 0.25 µg/mL (≈ 0.535 µM)
MIC ([4]; SHY-3906, 8 μg/ml of tomatidine, read-out: MIC +TO): 0.03 µg/mL (≈ 0.0642 µM)
MIC ([4]; SHY-3906, absence of tomatidine, read-out: MIC −TO): 0.25 µg/mL (≈ 0.535 µM)
Fold (−TO/+TO) ([5]; 8 μg/ml of tomatidine): 4-8 fold
MIC ([5]; ATCC 43300 / MRSA, Human (HA), MRSA, read-out: MIC): 512 to 1020 µg/mL (≈ 1100 to 2190 µM)
MIC ([5]; ATCC43300, 8 μg/ml of tomatidine, read-out: MIC +TO): 128 µg/mL (≈ 274 µM)
MIC ([5]; ATCC43300, absence of tomatidine, read-out: MIC −TO): 512 to 1020 µg/mL (≈ 1100 to 2190 µM)
Fold (−TO/+TO) ([6]; ATCC BAA-41, 8 μg/ml of tomatidine): 4 fold
MIC ([6]; ATCC BAA-41 / MRSA, ATCC BAA-41, Human (HA), MRSA, read-out: MIC): 512 µg/mL (≈ 1100 µM)
MIC ([6]; ATCCBAA41, ATCC BAA-41, ant(4′)-Ia, 8 μg/ml of tomatidine, read-out: MIC +TO): 128 µg/mL (≈ 274 µM)
MIC ([6]; ATCCBAA41, ATCC BAA-41, ant(4′)-Ia, absence of tomatidine, read-out: MIC −TO): 512 µg/mL (≈ 1100 µM)
Fold (−TO/+TO) ([7]; N315, 8 μg/ml of tomatidine): 2-4 fold
MIC ([7]; MRSA): 512 µg/mL (≈ 1100 µM)
MIC ([7]; N315, read-out: MIC +TO): 128 to 256 µg/mL (≈ 274 to 548 µM)
MIC ([7]; N315, read-out: MIC −TO): 512 µg/mL (≈ 1100 µM)
Fold (−TO/+TO) ([8]; 8 μg/ml of tomatidine): 8-16 fold
MIC [8, 20]: 0.06 µg/mL (≈ 0.128 µM)
MIC ([8]; Human (SSTI), read-out: MIC): 0.5 to 1 µg/mL (≈ 1.07 to 2.14 µM)
MIC [8, 21]: 0.5 to 1 µg/mL (≈ 1.07 to 2.14 µM)
Fold (−TO/+TO) ([9]; 8 μg/ml of tomatidine): 4-16 fold
MIC [9, 20]: 0.06 to 0.12 µg/mL (≈ 0.128 to 0.257 µM)
MIC ([9]; Human (SSTI), MRSA, read-out: MIC): 0.5 to 1 µg/mL (≈ 1.07 to 2.14 µM)
MIC [9, 21]: 0.5 to 1 µg/mL (≈ 1.07 to 2.14 µM)
Fold (−TO/+TO) ([10]; Sa228c, 8 μg/ml of tomatidine): 4-8 fold
MIC ([10]; read-out: MIC +TO): 128 to 256 µg/mL (≈ 274 to 548 µM)
MIC ([10]; read-out: MIC −TO): 1020 µg/mL (≈ 2190 µM)
Fold (−TO/+TO) ([11]; 8 μg/ml of tomatidine): 4-16 fold
MIC [11, 20]: 0.06 to 0.25 µg/mL (≈ 0.128 to 0.535 µM)
MIC [11, 22]: 1 µg/mL (≈ 2.14 µM)
MIC [11, 21]: 1 µg/mL (≈ 2.14 µM)
Fold (−TO/+TO) ([12]; 8 μg/ml of tomatidine): 8-16 fold
MIC [12, 20]: 0.06 to 0.12 µg/mL (≈ 0.128 to 0.257 µM)
MIC [12, 22]: 1 µg/mL (≈ 2.14 µM)
MIC [12, 21]: 1 µg/mL (≈ 2.14 µM)
Fold (−TO/+TO) ([13]; 8 μg/ml of tomatidine): 4-16 fold
MIC [13, 20]: 0.06 to 0.12 µg/mL (≈ 0.128 to 0.257 µM)
MIC [13, 22]: 0.5 to 1 µg/mL (≈ 1.07 to 2.14 µM)
MIC [13, 21]: 0.5 to 1 µg/mL (≈ 1.07 to 2.14 µM)
Fold (−TO/+TO) ([14]; 8 μg/ml of tomatidine): 4-16 fold
MIC ([14]; aac(6′)-aph(2″), 8 μg/ml of tomatidine, read-out: MIC +TO): 16 to 64 µg/mL (≈ 34.2 to 137 µM)
MIC ([14]; aac(6′)-aph(2″), absence of tomatidine, read-out: MIC −TO): 256 µg/mL (≈ 548 µM)
MIC [14, 22]: 256 µg/mL (≈ 548 µM)
Fold (−TO/+TO) ([15]; 8 μg/ml of tomatidine): 4 fold
MIC [15, 20]: 0.25 µg/mL (≈ 0.535 µM)
MIC [15, 22]: 1 µg/mL (≈ 2.14 µM)
MIC [15, 21]: 1 µg/mL (≈ 2.14 µM)
Fold (−TO/+TO) ([16]; 8 μg/ml of tomatidine): 4-8 fold
MIC ([16]; CF9AL, ant(4′)-Ia, 8 μg/ml of tomatidine, read-out: MIC +TO): 64 to 256 µg/mL (≈ 137 to 548 µM)
MIC ([16]; CF9AL, ant(4′)-Ia, absence of tomatidine, read-out: MIC −TO): 512 to 1020 µg/mL (≈ 1100 to 2190 µM)
MIC [16, 23]: 512 to 1020 µg/mL (≈ 1100 to 2190 µM)
Fold (−TO/+TO) ([17]; 8 μg/ml of tomatidine): 8-16 fold
MIC ([17]; CF35AL, 8 μg/ml of tomatidine, read-out: MIC +TO): 0.06 µg/mL (≈ 0.128 µM)
MIC ([17]; CF35AL, absence of tomatidine, read-out: MIC −TO): 0.5 to 1 µg/mL (≈ 1.07 to 2.14 µM)
MIC [17, 23]: 0.5 to 1 µg/mL (≈ 1.07 to 2.14 µM)
Fold (−TO/+TO) ([18]; 8 μg/ml of tomatidine): 4-8 fold
MIC [18, 20]: 0.06 to 0.12 µg/mL (≈ 0.128 to 0.257 µM)
MIC [18, 22]: 0.5 to 1 µg/mL (≈ 1.07 to 2.14 µM)
MIC [18, 21]: 0.5 to 1 µg/mL (≈ 1.07 to 2.14 µM)
time-kill activity alone [19]: bactericidal

Reference: patent US9457033B2, “Steroid alkaloids and uses thereof as antimicrobial agents against electron transport-deficient microbes and as potentiators for antimicrobial agents against pathogenic bacteria” (priority 2011, dated 2016)
